Like-named read-outs stand apart in the source and are kept apart here.
Columns and labels:
[1] = biological target: NMDA receptor; assay: NMDA receptor binding assay using [^3 H]CPP as antagonist ligand; details: for IC50: [^3 H]CPP
Excerpt: The activity of the compounds of the formula I is shown in vitro in an NMDA receptor binding assay based on the use of [^3 H]CPP as antagonist ligand in a manner essentially as set out by B. E. Murphy et al in J. Pharm.

[2] = test system: NMDA-induced seizure and death; assay: Inhibition of NMDA-induced seizures and death in mice; assay type: in vivo, male CF-1 mice; details: Mus musculus
Experimental: Intraperitoneal injection of N-methyl-D-aspartic acid (NMDA) has been previously reported to induce clonic seizures in C57BL/6J mice (Bernard, P.S. et al, Models of N-methyl-D -aspartate antagonism: A comparison of 2-amino-7-phosphonoheptanoic acid with muscle relaxant drugs, 15th Annual Meeting, International Society for Neuroscience, 1985). In a modified version of the above protocol, male CF-1 mice received an intravenous injection of 25 mg/kg NMDA--behind the lateral aspect of the right eye. This induced a rapidly onsetting seizure followed shortly thereafter by death. […] ED50 were determined for inhibition of seizures and death through comparison of drug treatment groups (n=10) with their respective vehicle controls (n=10).

[3] = test system: NMDA-Induced Subconvulsant Behavior; assay: Inhibitory effects in NMDA-induced subconvulsant behavior (tail biting) in Fisher rats; assay type: in vivo; details: for % Responders: 30 min before 50 mg/kg IV NMDA; for Latency (min ± S.E.) / % I: 30 min before NMDA; for Latency (min ± S.E.): 60 minutes=maximum; for % I: [1 - % test responders/% control responders] × 100
Experimental: In a modification of those methods, subconvulsant tail biting was induced in Fisher rats by intravenous injection of 50 mg/kg NMDA. The incidence (%) and response time (60 minutes=maximum) of control and drug treated rats (I.P., 30 minutes before NMDA) were compared. The inhibitory effects of 2-amino-7-phosphonoheptanoic acid and Example VIII are shown in Table 2 (% responders and time (latency in minutes)).
*Rats were dosed IP, 2 mls/kg 30 min before NMDA.
**% I = [1 - % test responders/% control responders] × 100.

[4] = Observation of drug effects or normal behavior in rats dosed with NMDA
[5] = 0.5 h, IV, five minutes prior to 25 mg/kg IV NMDA, survivors at thirty minutes, read-out: Inhibition of Death ED50
[6] = IV, five minutes prior to 25 mg/kg IV NMDA, read-out: Inhibition of Seizures ED50

## NC(C(=O)O)c1cccc(P(=O)(O)O)c1 (racemic) [Example VI A, (±)-α-Amino-3-Phosphonobenzeneacetic Acid]
[1]
  IC50: 17.9 µM

## NC(C(=O)O)c1ccc(CP(=O)(O)O)cc1 (racemic) [Example VIII, (±)-α-Amino-4-(Phosphonomethyl)Benzeneacetic Acid]
[2]; [5]
  ED50: 7.6 mg/kg
[2]; [6]
  ED50: > 30 mg/kg
[3]; 25 mg/kg IP, phosphate buffer control 9/10
  % Responders: 2/9
[3]; 25 mg/kg IP, p < 0.01, phosphate buffer 24.8 ± 4.9
  Latency (min ± S.E.): 51.6 ± 5.6 min
[3]; 25 mg/kg IP
  % I: 77.8%
[3]; 37 mg/kg IP, phosphate buffer control 9/10
  % Responders: 1/10
[3]; 37 mg/kg IP, p < 0.001, phosphate buffer 24.8 ± 4.9
  Latency (min ± S.E.): 55.5 ± 4.5 min
[3]; 37 mg/kg IP
  % I: 88.9%
[3]; in words, Table 2
  inhibitory effects compared with 7-APH: inhibitory effects similar in potency and efficacy to 7-APH
[4]; 37 mg/kg and 25 mg/kg IP
  drug induced behavioral effects: no drug induced behavioral effects
[1]
  IC50: 0.99 µM
[1]; in words, test not given
  most active of the most preferred compounds: most active compound

## NC(CCCCCP(=O)(O)O)C(=O)O (centres unmarked) [APH, 2-amino-7-phosphonoheptanoic acid, reference compound]
[2]; iv, 0.5 h, read-out: Inhibition of Death ED50
  ED50: 30 mg/kg
[2]; iv, read-out: Inhibition of Seizures ED50
  ED50: > 30 mg/kg
[3]; 10 mg/kg IP, saline control 9/10
  % Responders: 6/10
[3]; 10 mg/kg IP, p < 0.001, saline 15.8 ± 5.3
  Latency (min ± S.E.): 43.3 ± 5.8 min
[3]; 10 mg/kg IP
  % I: 33.3%
[3]; 30 mg/kg IP, saline control 9/11
  % Responders: 1/10
[3]; 30 mg/kg IP, p < 0.01, saline 33.1 ± 5.8
  Latency (min ± S.E.): 59.0 ± 1.0 min
[3]; 30 mg/kg IP
  % I: 87.8%
[4]; 10 mg/kg IP
  drug induced behavioral effects: no drug induced behavioral effects
[4]; 30 mg/kg IP
  ataxia: no ataxia
[4]; 30 mg/kg IP, versus controls
  exploratory behavior: slightly less exploratory than controls
[1]
  IC50: 0.8 µM

## NC(C(=O)O)c1cccc(CP(=O)(O)O)c1 (stereo not drawn) [Example II, Benzeneacetic Acid, α-Amino-3-(Phosphonomethyl)-]
[1]
  IC50: 11.8 µM

## NC(Cc1cccc(CP(=O)(O)O)c1)C(=O)O (centres unmarked) [Example III]
[2]; [5]
  ED50: 37 mg/kg
[2]; [6]
  ED50: ~60 mg/kg
[1]
  IC50: 3.56 µM

Reference: US5175153A, “Substituted alpha-amino acids having pharmaceutical activity” (Warner-Lambert Company, priority 1988, dated 1992)
